Assay results taken from ChEMBL document CHEMBL5365467 (J Med Chem, 2023).

Legend:
VCaP [1] = experiment: Antitumor activity against human VCaP cells xenografted in CB17-SCID mouse assessed as tumor growth inhibition at 40 mg/kg, po administered for 21 days; conditions: 504 h, read-out: TGI
VCaP [2] = experiment: Antitumor activity against human VCaP cells xenografted in CB17-SCID mouse assessed as tumor growth inhibition at 10 mg/kg, po administered for 21 days; format: functional; conditions: 504 h, time 21 day, read-out: TGI
[3] = Tmax in Sprague-Dawley rat at 5 mg/kg, po measured upto 24 hrs by LC-MS/MS analysis; format: ADME, organism-based; conditions: in vivo
[4] = Oral bioavailability in ICR mouse at 5 mg/kg measured upto 24 hrs by LC-MS/MS analysis; format: ADME, organism-based; conditions: in vivo
[5] = molecular target: Protein cereblon/Androgen receptor (Homo sapiens, UniProt P10275+Q96SW2); experiment: PROTAC activity at AR/CRBN in AR-positive human VCaP cells assessed as induction of androgen receptor degradation measured at 24 hrs; format: cell-based; conditions: read-out: DC50
Chain of Protein cereblon/Androgen receptor (Homo sapiens, UniProt P10275+Q96SW2) (P10275 whole entry): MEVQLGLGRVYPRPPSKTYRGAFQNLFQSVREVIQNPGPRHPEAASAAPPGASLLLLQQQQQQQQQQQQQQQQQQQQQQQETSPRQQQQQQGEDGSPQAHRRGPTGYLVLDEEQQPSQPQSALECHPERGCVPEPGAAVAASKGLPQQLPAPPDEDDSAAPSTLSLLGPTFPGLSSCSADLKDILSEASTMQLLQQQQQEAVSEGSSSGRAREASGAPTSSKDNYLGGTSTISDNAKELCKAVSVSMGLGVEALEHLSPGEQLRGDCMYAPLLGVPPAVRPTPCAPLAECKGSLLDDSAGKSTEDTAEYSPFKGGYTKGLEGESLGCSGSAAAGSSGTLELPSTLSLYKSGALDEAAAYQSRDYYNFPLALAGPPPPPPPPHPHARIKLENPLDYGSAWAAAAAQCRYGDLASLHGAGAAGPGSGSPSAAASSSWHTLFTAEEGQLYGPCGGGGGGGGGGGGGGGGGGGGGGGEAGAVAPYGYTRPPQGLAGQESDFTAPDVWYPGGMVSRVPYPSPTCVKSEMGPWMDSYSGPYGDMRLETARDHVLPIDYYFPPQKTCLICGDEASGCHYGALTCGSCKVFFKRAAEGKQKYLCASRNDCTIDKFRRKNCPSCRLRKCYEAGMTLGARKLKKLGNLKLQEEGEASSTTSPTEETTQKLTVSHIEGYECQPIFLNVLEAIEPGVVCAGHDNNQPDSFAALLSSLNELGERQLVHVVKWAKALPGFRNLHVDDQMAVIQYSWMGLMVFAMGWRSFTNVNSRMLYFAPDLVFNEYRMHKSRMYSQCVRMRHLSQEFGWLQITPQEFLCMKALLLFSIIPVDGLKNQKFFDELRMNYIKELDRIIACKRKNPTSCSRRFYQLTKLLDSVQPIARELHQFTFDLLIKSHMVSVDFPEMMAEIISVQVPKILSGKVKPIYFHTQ
Chain of Protein cereblon/Androgen receptor (Homo sapiens, UniProt P10275+Q96SW2) (Q96SW2 whole entry): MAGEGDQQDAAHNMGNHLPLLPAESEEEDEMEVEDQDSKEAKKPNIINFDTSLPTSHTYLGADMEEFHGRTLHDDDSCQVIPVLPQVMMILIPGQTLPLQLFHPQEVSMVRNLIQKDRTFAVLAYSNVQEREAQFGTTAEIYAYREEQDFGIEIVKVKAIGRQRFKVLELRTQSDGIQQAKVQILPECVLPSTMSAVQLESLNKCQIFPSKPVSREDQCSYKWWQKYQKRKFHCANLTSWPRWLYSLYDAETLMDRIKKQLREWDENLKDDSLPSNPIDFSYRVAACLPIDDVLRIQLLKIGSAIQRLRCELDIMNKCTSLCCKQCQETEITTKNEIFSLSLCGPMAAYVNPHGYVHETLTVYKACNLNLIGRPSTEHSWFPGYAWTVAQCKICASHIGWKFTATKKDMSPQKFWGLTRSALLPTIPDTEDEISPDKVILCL

[6] = molecular target: Protein cereblon/Androgen receptor (Homo sapiens, UniProt P10275+Q96SW2, T878A); experiment: PROTAC activity at AR T878A mutant/CRBN in human LNCaP cells assessed as induction of androgen receptor degradation measured at 24 hrs by Western blot analysis; format: cell-based
Chain of Protein cereblon/Androgen receptor (Homo sapiens, UniProt P10275+Q96SW2, T878A) (P10275 whole entry T878A, stated change not applied): as the sequence (P10275 whole entry) above, with T878A counted along it
Chain of Protein cereblon/Androgen receptor (Homo sapiens, UniProt P10275+Q96SW2, T878A) (Q96SW2 whole entry, stated change not applied): as the sequence (Q96SW2 whole entry) above

[7] = Half life in Sprague-Dawley rat at 2 mg/kg, iv measured upto 24 hrs by LC-MS/MS analysis; conditions: in vivo
[8] = Half life in Sprague-Dawley rat at 5 mg/kg, po measured upto 24 hrs by LC-MS/MS analysis; conditions: in vivo
LNCaP = experiment: Growth inhibition in human LNCaP cells assessed as reduction in cell viability
[9] = Metabolic stability in rat liver microsome assessed as half life measured upto 45 mins in presence of NADPH by LC-MS/MS analysis; format: ADME; conditions: liver microsomes
[10] = Metabolic stability in dog liver microsome assessed as half life measured upto 45 mins in presence of NADPH by LC-MS/MS analysis; format: ADME, Canis lupus familiaris; conditions: liver microsomes
[11] = Metabolic stability in dog liver microsome assessed as parent compound remaining measured at 120 mins in presence of NADPH by LC-MS/MS analysis; format: ADME, Canis lupus familiaris; conditions: liver microsomes, read-out: Stability
[12] = Metabolic stability in human liver microsome assessed as parent compound remaining measured at 120 mins in presence of NADPH by LC-MS/MS analysis; format: ADME; conditions: liver microsomes, read-out: Stability
[13] = Metabolic stability in mouse hepatocyte assessed as half life measured upto 120 mins by LC-MS/MS analysis; format: ADME, cell-based; conditions: hepatocytes
[14] = Metabolic stability in rat hepatocyte assessed as half life measured upto 120 mins by LC-MS/MS analysis; format: ADME, cell-based; conditions: hepatocytes
[15] = Metabolic stability in dog hepatocyte assessed as half life measured upto 120 mins by LC-MS/MS analysis; format: ADME, cell-based, Canis lupus familiaris; conditions: hepatocytes
[16] = Metabolic stability in non human primate hepatocyte assessed as half life measured upto 120 mins by LC-MS/MS analysis; format: ADME, cell-based; conditions: primates, hepatocytes
[17] = Metabolic stability in human hepatocyte assessed as half life measured upto 120 mins by LC-MS/MS analysis; format: ADME, cell-based; conditions: hepatocytes
[18] = Metabolic stability in mouse plasma assessed as half life measured after 2 hrs by LC-MS/MS analysis; format: ADME, cell-free
[19] = Metabolic stability in rat plasma assessed as half life measured after 2 hrs by LC-MS/MS analysis; format: ADME, cell-free
[20] = Metabolic stability in dog plasma assessed as half life measured after 2 hrs by LC-MS/MS analysis; format: ADME, cell-free, Canis lupus familiaris
[21] = Metabolic stability in non human primate plasma assessed as half life measured after 2 hrs by LC-MS/MS analysis; format: ADME, cell-free; conditions: primates
[22] = Metabolic stability in mouse plasma assessed as parent compound remaining measured after 120 mins by LC-MS/MS analysis; format: ADME, cell-free; conditions: read-out: Stability
[23] = Metabolic stability in rat plasma assessed as parent compound remaining measured after 120 mins by LC-MS/MS analysis; format: ADME, cell-free; conditions: read-out: Stability
[24] = Half life in ICR mouse at 2 mg/kg, iv measured upto 24 hrs by LC-MS/MS analysis; format: ADME, organism-based; conditions: in vivo
[25] = Volume of distribution at steady state in ICR mouse at 2 mg/kg, iv measured upto 24 hrs by LC-MS/MS analysis; format: ADME, organism-based; conditions: in vivo, read-out: Vdss
[26] = Clearance in ICR mouse at 2 mg/kg, iv measured upto 24 hrs by LC-MS/MS analysis; format: ADME, organism-based; conditions: in vivo
[27] = Tmax in ICR mouse at 5 mg/kg, po measured upto 24 hrs by LC-MS/MS analysis; format: ADME, organism-based; conditions: in vivo
[28] = Cmax in ICR mouse at 5 mg/kg, po measured upto 24 hrs by LC-MS/MS analysis; format: ADME, organism-based; design: time < 24 hrs, dose 5 mg/kg, route po; conditions: in vivo
[29] = AUC (0 to t) in ICR mouse at 5 mg/kg, po measured upto 24 hrs by LC-MS/MS analysis; format: ADME, organism-based; design: dose 5 mg/kg, time < 24 hrs, route po; conditions: in vivo
[30] = Half life in Beagle dog at 10 mg/kg, po measured upto 24 hrs by LC-MS/MS analysis; format: ADME, organism-based, Canis lupus familiaris; conditions: in vivo
[31] = AUC (0 to t) in Beagle dog at 1 mg/kg, iv measured upto 24 hrs by LC-MS/MS analysis; format: ADME, organism-based, Canis lupus familiaris; design: dose 1 mg/kg, time < 24 hrs, route iv; conditions: in vivo
[32] = Volume of distribution at steady state in Beagle dog at 1 mg/kg, iv measured upto 24 hrs by LC-MS/MS analysis; format: ADME, organism-based, Canis lupus familiaris; conditions: in vivo, read-out: Vdss
[33] = Clearance in Beagle dog at 1 mg/kg, iv measured upto 24 hrs by LC-MS/MS analysis; format: ADME, organism-based, Canis lupus familiaris; conditions: in vivo
[34] = Tmax in Beagle dog at 10 mg/kg, po measured upto 24 hrs by LC-MS/MS analysis; format: ADME, organism-based, Canis lupus familiaris; conditions: in vivo
[35] = Cmax in Beagle dog at 10 mg/kg, po measured upto 24 hrs by LC-MS/MS analysis; format: ADME, organism-based, Canis lupus familiaris; design: time < 24 hrs, dose 10 mg/kg, route po; conditions: in vivo
[36] = AUC (0 to t) in Beagle dog at 10 mg/kg, po measured upto 24 hrs by LC-MS/MS analysis; format: ADME, organism-based, Canis lupus familiaris; design: time < 24 hrs, dose 10 mg/kg, route po; conditions: in vivo
[37] = Volume of distribution at steady state in non human primate at 1 mg/kg, iv measured upto 24 hrs by LC-MS/MS analysis; format: ADME, organism-based; conditions: primates, in vivo, read-out: Vdss
[38] = Clearance in non human primate at 1 mg/kg, iv measured upto 24 hrs by LC-MS/MS analysis; format: ADME, organism-based; conditions: primates, in vivo
[39] = AUC (0 to t) in non human primate at 2 mg/kg, po measured upto 24 hrs by LC-MS/MS analysis; format: ADME, organism-based; design: time < 24 hrs, dose 2 mg/kg, route po; conditions: primates, in vivo
[40] = Oral bioavailability in non human primate at 2 mg/kg measured upto 24 hrs by LC-MS/MS analysis; format: ADME, organism-based; conditions: primates, in vivo
[41] = Toxicity in CB17-SCID mouse assessed as body weight loss at 10 to 40 mg/kg, po administered for 21 days; format: organism-based; conditions: in vivo, 504 h, dose 10-40 mg/kg, time 21 day
[42] = molecular target: Protein cereblon/Androgen receptor (Homo sapiens, UniProt P10275+Q96SW2, L702H/T878A); conditions: mda-pca-2b
Chain of Protein cereblon/Androgen receptor (Homo sapiens, UniProt P10275+Q96SW2, L702H/T878A) (P10275 whole entry L702H/T878A, stated change not applied): as the sequence (P10275 whole entry) above, with L702H, T878A counted along it
Chain of Protein cereblon/Androgen receptor (Homo sapiens, UniProt P10275+Q96SW2, L702H/T878A) (Q96SW2 whole entry, stated change not applied): as the sequence (Q96SW2 whole entry) above

in vivo [43] = conditions: Sprague-Dawley, rat, iv, 2 mg/kg
in vivo [44] = conditions: Sprague-Dawley, rat, po, 5 mg/kg
in vivo [45] = conditions: Sprague-Dawley, rat, po, 5 mg/kg; remark: listed apart in the source

Structure (SMILES): C[C@H]1CC2(CCN(c3ccc(C(=O)N4CCC(CN5Cc6cc7c(cc6C5)C(=O)N(C5CCC(=O)NC5=O)C7=O)CC4)cc3)CC2)CN1c1ccc(C#N)c(Cl)c1 (stereo partly specified)
- inhibition in vivo at 40 mg/kg (VCaP [1]): 85%
- inhibition in vivo at 10 mg/kg (VCaP [2]): 50%
- Tmax [3]: 4 h
- bioavailability [4]: 67%
- DC50 [5]: 0.1 nM
- DC50 [6]: 1.1 nM
- half-life at 24 h [7]: 4.5 h
- half-life at 24 h [8]: 5.6 h
- IC50 (LNCaP): 2.8 nM
- half-life at […] [9]: > 1 h
- half-life at […] [10]: > 1 h
- remaining at 2 h [11]: 87%
- remaining at 2 h [12]: 84%
- half-life [13]: > 2 h
- half-life [14]: > 2 h
- half-life [15]: > 2 h
- half-life [16]: > 2 h
- half-life [17]: > 2 h
- half-life [18]: > 2 h
- half-life [19]: > 2 h
- half-life [20]: > 2 h
- half-life [21]: > 2 h
- remaining at 2 h [22]: 62%
- remaining at 2 h [23]: 52%
- half-life [24]: 4.3 h
- Vd [25]: 0.23 L/kg
- clearance [26]: 0.667 mL/min/kg
- Tmax [27]: 2 h
- Cmax [28]: 9120 ng/mL
- AUC(0-t) at 24 h [29]: 85200 ng·h/mL
- half-life [30]: 27.4 h
- AUC(0-t) at 24 h [31]: 4860 ng·h/mL
- Vd [32]: 1.74 L/kg
- clearance [33]: 3.17 mL/min/kg
- Tmax [34]: 3 h
- Cmax [35]: 1030 ng/mL
- AUC(0-t) at 24 h [36]: 15200 ng·h/mL
- Vd [37]: 2.07 L/kg
- clearance [38]: 3.33 mL/min/kg
- AUC(0-t) at 24 h [39]: 10300 ng·h/mL
- bioavailability [40]: 99%
- Activity [41]: Non-Toxic
- DC50 [42]: 8 nM
- AUC(0-t) at 24 h (in vivo [43]): 5490 ng·h/mL
- Cmax at 24 h (in vivo [44]): 871 ng/mL
- bioavailability at 24 h (in vivo [45]): 44%
